This note sets out measurements from ChEMBL document CHEMBL3797117 (Bioorg Med Chem Lett, 2016).

The target in data set [1] is Aldo-keto reductase family 1 member B1 (Rattus norvegicus, UniProt P07943). Put plainly: Inhibition of ALR2 from rat lens using D,L-glyceraldehyde as substrate measured as absorption of NADPH for 4 mins by UV/vis spectrophotmetry.
Data set [2] is described as follows: Antioxidant activity assessed as DPPH free radical scavenging activity at 100 uM after 40 mins by UV-Vis spectrophotometry. The class given is physicochemical.
The next data set relates to Brain. Put plainly: Reduction of MDA level in Wistar rat brain at 100 uM after 30 mins in presence of ascorbic acid by UV-vis spectrophotmetry relative to control. As to conditions: 0.5 h. The data set is classed as functional.
Data set [3] can be described thus: Antioxidant activity assessed as DPPH free radical scavenging activity at 100 uM after 120 mins under sunlight by UV-Vis spectrophotometry. The data set is classed as physicochemical. As to conditions: 2 h.
A short description of data set [4]: Antioxidant activity assessed as DPPH free radical scavenging activity at 10 uM after 120 mins under sunlight by UV-Vis spectrophotometry. The note with it: 2 h. The class given is physicochemical.
Data set [5] can be described thus: Antioxidant activity assessed as DPPH free radical scavenging activity at 100 uM after 30 mins under sunlight by UV-Vis spectrophotometry. The note with it: 0.5 h. The class given is physicochemical.
Data set [6] can be described thus: Antioxidant activity assessed as DPPH free radical scavenging activity at 10 uM after 30 mins under sunlight by UV-Vis spectrophotometry. The data set is classed as physicochemical. As to conditions: 0.5 h. In general terms: DPPH is a stable violet radical that fades when it is reduced.
Data set [7] in a line: Antioxidant activity assessed as DPPH free radical scavenging activity at 1 uM after 30 mins under sunlight by UV-Vis spectrophotometry. The data set is classed as physicochemical. The note with it: 0.5 h.
A short description of data set [8]: Antioxidant activity assessed as DPPH free radical scavenging activity after 30 mins under sunlight by UV-Vis spectrophotometry. The data set is classed as physicochemical.
Data set [9] can be described thus: Antioxidant activity assessed as DPPH free radical scavenging activity at 10 uM after 40 mins by UV-Vis spectrophotometry. The class given is physicochemical.
The nature of data set [10]: Antioxidant activity assessed as DPPH free radical scavenging activity at 1 uM after 40 mins by UV-Vis spectrophotometry. The class given is physicochemical.

pEC50, pIC50: −log10 of the molar value.

What is called pIC50 is −log10 of the IC50, conventionally taken in molar units. A low value points to a high IC50. As a reminder, the inhibition is the share of the control response that was lost under treatment. For orientation: pEC50 means the EC50 on a negative log10 scale, so that one unit is a factor of ten.

For the molecule `COc1ccc(CN2CN(CC(=O)O)c3ccc(OC)cc3S2(=O)=O)cc1`, in data set [1], the pIC50 is 4.95. Further, the “inhibition (INH)” value in [2] is on record as 40.6%. Further, the inhibition at 100 µM with Brain was 31.5%.
For `COc1ccc(CN2CN(CC(=O)O)c3ccc(Cl)cc3S2(=O)=O)cc1` the same measures were 5.12, 5.9% and 1.6%.
As for `COc1ccc2c(c1)S(=O)(=O)N(Cc1ccccc1)CN2CC(=O)O`, in [1], the pIC50 is 4.87. Moreover, in [2], the “inhibition (INH)” value turned out to be 53.1%. The inhibition at 100 µM in the data set on Brain came to 42.3%.
In the same order, the values of `Cc1ccc2c(c1)S(=O)(=O)N(Cc1cc(O)ccc1F)CN2CC(=O)O` are 5.32, 32.3% and 14.1%.
Turning to `COc1ccc(CN2CN(CC(=O)O)c3ccc(Br)cc3S2(=O)=O)cc1`, the pIC50 in data set [1] is 5.14. The “inhibition (INH)” value in [2] came to 6.2%. Further, the inhibition at 100 µM in the data set on Brain turned out to be 2.6%.
Take `O=C(O)CN1CN(Cc2ccccc2)S(=O)(=O)c2cc(O)ccc21`: in [1], the pIC50 is 5.03. Also, the “inhibition (INH)” value in [3] is on record as 93.3%; in [4], 24.4%. In the data set on Brain, the inhibition at 100 µM turned out to be 88%.
`COc1ccc(CN2CN(CC(=O)O)c3ccc(C)cc3S2(=O)=O)cc1`: the negative-log IC50 (pIC50) in data set [1] is 4.74. For the same molecule, the “inhibition (INH)” value in [2] came to 3.1%. Further, the inhibition at 100 µM in the data set on Brain is 8.4%.
Molecule `O=C(O)CN1CN(Cc2ccc(O)cc2)S(=O)(=O)c2cc(O)ccc21` showed a pIC50 in data set [1] of 5.12. Besides, the “inhibition (INH)” value in [5] was 98%; in data set [6], 92.3%; in data set [7] it was 42.1%. Besides, in data set [8], the pEC50 was 5.12. In the data set with Brain, the inhibition at 100 µM is 100%.
In [1], `COc1ccc(F)c(CN2CN(CC(=O)O)c3ccc(Br)cc3S2(=O)=O)c1` had a negative logarithm of the IC50 (pIC50) of 5.74. Besides, the “inhibition (INH)” value in [2] was 44.3%. Also, in the data set on Brain, the inhibition at 100 µM came to 9.55%.
As for `COc1ccc(F)c(CN2CN(CC(=O)O)c3ccc(C)cc3S2(=O)=O)c1`, the pIC50 in data set [1] is 5.46. Moreover, in [2], the “inhibition (INH)” value is 18.9%. In the data set on Brain, the inhibition at 100 µM was found to be 4.47%.
For `Cc1ccc2c(c1)S(=O)(=O)N(Cc1ccc(O)cc1)CN2CC(=O)O` the same measures were 5.25, 5.2% and 11%.
For `CC(/C=C1\SC(=S)N(CC(=O)O)C1=O)=C\c1ccccc1`, in data set [2], the “inhibition (INH)” value came to 0%. The inhibition at 100 µM in the data set with Brain was determined as 0%.
Regarding `Cc1c(C)c2c(c(C)c1O)CCC(C)(C(=O)O)O2` (stereo not drawn) [TROLOX], the “inhibition (INH)” value in data set [2] is on record as 97%; in data set [9], 91.1%; in [10] it was 32%. Also, the inhibition at 100 µM with Brain was determined as 100%.
